Earlier results, collected in US20040009212A1, “Mucoadhesive thermoresponsive medicament-carrier composition” (PHARMA POWER BIOTEC CO. LTD., priority 2002, published 2004).

System: leukoplakia
Settings: of 12 leukoplakia patients

## NCC(=O)CCC(=O)O [ALA, 5-aminolevulinic acid]
Topical ALA in 20wt. % eucerin with arabic gum and paraffin, with PDT
  patients having response: 9 patients
Topical ALA with PDT
  patients having full response: 5 patients
